Measured values reported in paper PMC11255275, “Structural insights into the triple agonism at GLP-1R, GIPR and GCGR manifested by retatrutide” (Cell Discovery, 2024).
Like-named read-outs stand apart in the source and are kept apart here.

How the values were obtained:
GIPR = molecular target: T1, GIPR (Homo sapiens, UniProt P48546); assay: cAMP accumulation, wild-type GIPR; assay type: cell-based; conditions: HEK-293T, 40 min, TR-FRET, mean ± S.E.M.
T1 construct: expressed in transfected cells; host or cells: HEK-293T
Procedure: (§1) HEK-293T cells were maintained at 37°C in 5% CO2 incubator and seeded onto 6-well cell […]
(§2) culture plates before transfection. After overnight culture, the cells were transiently transfected […]
(§3) with various constructs using Lipofectamine 2000 transfection reagent (Invitrogen). After 24 h, […]
(§4) the transfected cells were seeded onto 384-microtiter plates at a density of 3,000 cells per well […]
(§5) in stimulation buffer (HBSS supplemented with 5 mM HEPES, 0.1% (w/v) casein and 0.5 mM […]
(§6) 3-isobutyl-1-methylxanthine). Different concentrations of retatrutide in stimulation buffer were […]
(§7) added, and the stimulation lasted for 40 min. The reaction was stopped by addition of cAMP […]
(§8) detection buffer containing Eu-cAMP tracer and ULight-anti-cAMP. Plates were then incubated for […]
(§9) 60 min at RT. Time-resolved FRET signals were measured at 620 nm and 665 nm, respectively, by […]
(§10) an EnVision multilabel plate reader (PerkinElmer). Data were analyzed in GraphPad PRISM 9.5 […]
and all values were normalized to that of the wild-type (WT). […]
(§11) accumulation was measured in wild-type (WT) and single-point mutated GLP-1R, GIPR or […]
of the WT and dose-response curves were analyzed using a three-parameter logistic equation. […]
curves were analyzed using a three-parameter logistic equation to obtain pEC50 and Emax values. […]
(§12) way ANOVA was used to determine statistical difference. N.D., values that could not be determined due […]

[1] = test system: C57/Bl6 diet-induced obese (DIO) mice; conditions: cited from earlier work
Text: (§13) The most successful treatments currently available include glucagon-like peptide-1 (GLP-1) receptor agonists (GLP-1RAs), exemplified by semaglutide (approved in 2017, $19.9 billion sales in 2023)[3] and tirzepatide (approved in 2022, $5.3 billion sales in 2023)[4]. […] For humans, events were mild, such as 50 1 ascending (PMID: 4 months ...

[2] = cited from earlier work; for average weight loss: 12 mg dose group
Text: as §13

GCGR mutants [3] = molecular target: T2, GCGR mutants (Homo sapiens, UniProt P47871, I194K); assay: cAMP accumulation, single-point mutated GCGR; assay type: cell-based; conditions: GCGR I194(2.67b)K, HEK-293T, 40 min, TR-FRET, mean ± S.E.M., n at least 3
T2 construct: expressed in transfected cells; host or cells: HEK-293T
Procedure: as §1, §2, §3, §4, §5, §6, §7, §8, §9, §10
(§14) and all values were normalized to that of the wild-type (WT).
(§15) Supplementary Fig. 5 Effects of receptor mutation on retatrutide-induced cAMP […]
(§16) accumulation. a-c, Signaling profiles of GLP-1R (a), GIPR (b) and GCGR (c) mutants. cAMP […]
as §11
(§17) GCGR expressing HEK-293T cells. cAMP levels were normalized to the maximum response […]
(§18) of the WT and dose-response curves were analyzed using a three-parameter logistic equation.
(§19) Data were generated and graphed as means ± S.E.M. of at least three independent experiments performed in quadruplicate.
(§20) (1 picture or pasted object on this page, not shown here)
(§21) Supplementary Ta b l e S 5 Effects of the ligand-binding pocket residue mutation on retatrutide- […]
(§22) induced cAMP signaling at GLP-1R, GIPR or GCGR. […]
(§23) cAMP levels were normalized to the maximum response of the wild-type (WT) and dose-response […]
(§24) curves were analyzed using a three-parameter logistic equation to obtain pEC50 and Emax values. The […]
(§25) experiments were carried out independently at least three times. Data shown are means ± S.E.M. One- […]
as §12
(§26) to incomplete curve fits. *P< 0.05, **P< 0.01, ***P< 0.001 and ****P<0.0001.

GCGR mutants [4] = molecular target: T3, GCGR mutants (Homo sapiens, UniProt P47871, Y202A); assay: cAMP accumulation, single-point mutated GCGR; assay type: cell-based; conditions: GCGR Y202(2.75b)A, HEK-293T, 40 min, TR-FRET, mean ± S.E.M., n at least 3
T3 construct: expressed in transfected cells; host or cells: HEK-293T
Procedure: as §1, §2, §3, §4, §5, §6, §7, §8, §9, §10, §14, §15, §16, §11, §17, §18, §19, §20, §21, §22, §23, §24, §25, §12, §26

GCGR mutants [5] = molecular target: T4, GCGR mutants (Homo sapiens, UniProt P47871, S297A); assay: cAMP accumulation, single-point mutated GCGR; assay type: cell-based; conditions: GCGR S297(ECL2)A; HEK-293T, 40 min, TR-FRET; mean ± S.E.M., n at least 3
T4 construct: expressed in transfected cells; host or cells: HEK-293T
Procedure: as §1, §2, §3, §4, §5, §6, §7, §8, §9, §10, §14, §15, §16, §11, §17, §18, §19, §20, §21, §22, §23, §24, §25, §12, §26

GCGR mutants [6] = molecular target: T5, GCGR mutants (Homo sapiens, UniProt P47871, Q131A); assay: cAMP accumulation, single-point mutated GCGR; assay type: cell-based; conditions: GCGR Q131(1.29b)A; HEK-293T, 40 min, TR-FRET; mean ± S.E.M., n at least 3
T5 construct: expressed in transfected cells; host or cells: HEK-293T
Procedure: as §1, §2, §3, §4, §5, §6, §7, §8, §9, §10, §14, §15, §16, §11, §17, §18, §19, §20, §21, §22, §23, §24, §25, §12, §26

GCGR mutants [7] = molecular target: T6, GCGR mutants (Homo sapiens, UniProt P47871, K205A); assay: cAMP accumulation, single-point mutated GCGR; assay type: cell-based; conditions: GCGR K205(ECL1)A; HEK-293T, 40 min, TR-FRET; mean ± S.E.M., n at least 3
T6 construct: expressed in transfected cells; host or cells: HEK-293T
Procedure: as §1, §2, §3, §4, §5, §6, §7, §8, §9, §10, §14, §15, §16, §11, §17, §18, §19, §20, §21, §22, §23, §24, §25, §12, §26

GCGR mutants [8] = molecular target: T7, GCGR mutants (Homo sapiens, UniProt P47871, W87A); assay: cAMP accumulation, single-point mutated GCGR; assay type: cell-based; conditions: GCGR W87(ECD)A, HEK-293T, 40 min, TR-FRET, mean ± S.E.M., n at least 3
T7 construct: expressed in transfected cells; host or cells: HEK-293T
Procedure: as §1, §2, §3, §4, §5, §6, §7, §8, §9, §10, §14, §15, §16, §11, §17, §18, §19, §20, §21, §22, §23, §24, §25, §12, §26

GCGR mutants [9] = molecular target: T8, GCGR mutants (Homo sapiens, UniProt P47871, Y138A); assay: cAMP accumulation, single-point mutated GCGR; assay type: cell-based; conditions: GCGR Y138(1.36b)A, HEK-293T, 40 min, TR-FRET, mean ± S.E.M., n at least 3
T8 construct: expressed in transfected cells; host or cells: HEK-293T
Procedure: as §1, §2, §3, §4, §5, §6, §7, §8, §9, §10, §14, §15, §16, §11, §17, §18, §19, §20, §21, §22, §23, §24, §25, §12, §26

GCGR mutants [10] = molecular target: T9, GCGR mutants (Homo sapiens, UniProt P47871, Q293A); assay: cAMP accumulation, single-point mutated GCGR; assay type: cell-based; conditions: GCGR Q293(ECL2)A, HEK-293T, 40 min, TR-FRET, mean ± S.E.M., n at least 3
T9 construct: expressed in transfected cells; host or cells: HEK-293T
Procedure: as §1, §2, §3, §4, §5, §6, §7, §8, §9, §10, §14, §15, §16, §11, §17, §18, §19, §20, §21, §22, §23, §24, §25, §12, §26

[11] = C57/Bl6 DIO mice, ref Coskun T et al (supplement ref 17)
[12] = 12 mg, ref Jastreboff AM et al (supplement ref 19)
[13] = ref Rosenstock J et al (supplement ref 20)

T5 sequence (P47871 26-477 Q131A): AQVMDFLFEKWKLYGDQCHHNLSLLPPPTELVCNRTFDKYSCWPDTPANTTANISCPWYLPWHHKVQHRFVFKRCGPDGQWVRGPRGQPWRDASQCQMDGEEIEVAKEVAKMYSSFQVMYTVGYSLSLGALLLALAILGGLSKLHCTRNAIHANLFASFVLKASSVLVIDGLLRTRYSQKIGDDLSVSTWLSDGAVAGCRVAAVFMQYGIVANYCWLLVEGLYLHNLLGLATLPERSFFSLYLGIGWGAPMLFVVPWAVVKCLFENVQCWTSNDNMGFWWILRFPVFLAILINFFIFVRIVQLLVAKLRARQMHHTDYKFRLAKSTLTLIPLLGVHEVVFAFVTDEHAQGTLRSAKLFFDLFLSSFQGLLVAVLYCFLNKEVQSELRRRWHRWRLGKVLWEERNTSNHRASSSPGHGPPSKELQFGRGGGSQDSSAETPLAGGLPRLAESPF
T3 sequence (P47871 26-477 Y202A): as the sequence (P47871 26-477 Q131A) above, with A106Q, Y177A counted along it
T7 sequence (P47871 26-477 W87A): as the sequence (P47871 26-477 Q131A) above, with W62A, A106Q counted along it
T2 sequence (P47871 26-477 I194K): as the sequence (P47871 26-477 Q131A) above, with A106Q, I169K counted along it
T8 sequence (P47871 26-477 Y138A): as the sequence (P47871 26-477 Q131A) above, with A106Q, Y113A counted along it
T4 sequence (P47871 26-477 S297A): as the sequence (P47871 26-477 Q131A) above, with A106Q, S272A counted along it
T1 sequence (P48546 22-466): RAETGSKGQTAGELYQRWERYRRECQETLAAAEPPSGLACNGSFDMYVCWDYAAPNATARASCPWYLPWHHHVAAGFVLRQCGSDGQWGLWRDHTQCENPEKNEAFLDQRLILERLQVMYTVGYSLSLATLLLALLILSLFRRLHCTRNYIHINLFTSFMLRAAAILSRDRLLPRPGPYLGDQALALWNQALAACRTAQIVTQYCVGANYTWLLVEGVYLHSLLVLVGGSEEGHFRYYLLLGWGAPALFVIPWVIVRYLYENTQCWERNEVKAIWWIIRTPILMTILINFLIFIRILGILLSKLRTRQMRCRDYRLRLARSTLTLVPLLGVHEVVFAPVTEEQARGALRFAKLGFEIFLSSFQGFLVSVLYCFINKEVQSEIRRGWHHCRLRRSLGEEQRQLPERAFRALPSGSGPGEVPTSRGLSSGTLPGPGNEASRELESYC
T9 sequence (P47871 26-477 Q293A): as the sequence (P47871 26-477 Q131A) above, with A106Q, Q268A counted along it
T6 sequence (P47871 26-477 K205A): as the sequence (P47871 26-477 Q131A) above, with A106Q, K180A counted along it

## CC[C@H](C)[C@H](NC(=O)[C@H](Cc1ccccc1)NC(=O)[C@H](C)NC(=O)C(C)(C)NC(=O)[C@H](CCC(N)=O)NC(=O)[C@H](C)NC(=O)[C@H](CCCCNC(=O)COCCOCCNC(=O)CC[C@H](NC(=O)CCCCCCCCCCCCCCCCCCC(=O)O)C(=O)O)NC(=O)[C@H](CCCCN)NC(=O)[C@H](CC(=O)O)NC(=O)[C@H](CC(C)C)NC(=O)[C@](C)(CC(C)C)NC(=O)[C@@H](NC(=O)[C@H](CO)NC(=O)[C@H](Cc1ccc(O)cc1)NC(=O)[C@H](CC(=O)O)NC(=O)[C@H](CO)NC(=O)[C@@H](NC(=O)[C@H](Cc1ccccc1)NC(=O)[C@@H](NC(=O)CNC(=O)[C@H](CCC(N)=O)NC(=O)C(C)(C)NC(=O)[C@@H](N)Cc1ccc(O)cc1)[C@@H](C)O)[C@@H](C)O)[C@@H](C)CC)C(=O)N[C@@H](CCC(=O)O)C(=O)N[C@@H](Cc1ccc(O)cc1)C(=O)N[C@@H](CC(C)C)C(=O)N[C@@H](CC(C)C)C(=O)N[C@@H](CCC(=O)O)C(=O)NCC(=O)NCC(=O)N1CCC[C@H]1C(=O)N[C@@H](CO)C(=O)N[C@@H](CO)C(=O)NCC(=O)N[C@@H](C)C(=O)N1CCC[C@H]1C(=O)N1CCC[C@H]1C(=O)N1CCC[C@H]1C(=O)N[C@@H](CO)C(N)=O [retatrutide]
GIPR; GIPR WT, at least 3 independent experiments in quadruplicate
  EC50: 2.29 pM
GIPR; n at least 3
  Emax ± S.E.M. (% WT): 100.00 ± 2.84 % WT
[1]; [11]
  ED50, body weight reduction: 4.73 nmol/kg
  body weight and calorie intake: dose-dependently reduced
[1]; obese mice, due to an increased energy expenditure through GCGR activation
  body weight loss compared with tirzepatide: greater body weight losses in obese mice than tirzepatide
[2]; 8 mg or 12 mg, ref Jastreboff AM et al (supplement ref 19)
  participants with weight reduction of 5% or more: All the participants
[2]; [12]
  participants who lost 20% or more of baseline weight: nearly two thirds
  participants who lost 25% or more of baseline weight: nearly half
  participants who lost 30% or more of baseline weight: a quarter
[2]; 24 weeks
  average weight loss: 17.5%
[2]; 24 weeks, 12-mg group, placebo –1.6%, ref Jastreboff AM et al (supplement ref 19)
  least-squares mean percentage change in body weight: –17.5%
[2]; 24 weeks, combined 4-mg group, placebo –1.6%, ref Jastreboff AM et al (supplement ref 19)
  least-squares mean percentage change in body weight: –12.9%
[2]; 24 weeks, combined 8-mg group, placebo –1.6%, ref Jastreboff AM et al (supplement ref 19)
  least-squares mean percentage change in body weight: –17.3%
[2]; 36 weeks, ref Rosenstock J et al (supplement ref 20)
  participants who lost at least 15% of body weight (up to): Up to 63%
[2]; 48 weeks
  average weight loss: 24.2%
[2]; 48 weeks, 12-mg group, placebo –2.1%, ref Jastreboff AM et al (supplement ref 19)
  least-squares mean percentage change in body weight: –24.2%
[2]; 48 weeks, combined 4-mg group, placebo –2.1%, ref Jastreboff AM et al (supplement ref 19)
  least-squares mean percentage change in body weight: –17.1%
[2]; 48 weeks, combined 8-mg group, placebo –2.1%, ref Jastreboff AM et al (supplement ref 19)
  least-squares mean percentage change in body weight: –22.8%
[2]; dose-dependent, ref Rosenstock J et al (supplement ref 20)
  blood pressure: reduction of blood pressure
[2]; in vivo
  frequency of gastrointestinal events by starting dose: occurred more frequently
  heart rate: Dose-dependent increases
  mitigation of gastrointestinal adverse events by lower starting dose: partially mitigated
  participants with gastrointestinal adverse events: 35%
  safety profile: safety profile comparable to certain approved GLP-1RAs
  severity of most common (gastrointestinal) adverse events: mild to moderate in severity
[2]; phase 2, type 2 diabetes
  glycemic control: significant improvements in glycemic control
  weight reduction: substantial weight reduction
[2]; [13]
  glycemic control: clinically improvements in glycemic control
  non-HDL cholesterol: reduction
  reduction of triglycerides: ~ 35%
GCGR mutants [3]
  Emax ± S.E.M. (% WT): 101.55 ± 2.54 % WT
GCGR mutants [3]; ****P < 0.0001
  EC50: 263 pM
GCGR mutants [4]
  Emax ± S.E.M. (% WT): 100.47 ± 2.15 % WT
GCGR mutants [4]; ****P < 0.0001
  EC50: 123 pM
GCGR mutants [5]
  EC50: 4.9 pM
  Emax ± S.E.M. (% WT): 100.48 ± 1.34 % WT
GCGR mutants [6]
  EC50: 6.76 pM
  Emax ± S.E.M. (% WT): 100.15 ± 1.51 % WT
GCGR mutants [7]
  EC50: 9.33 pM
  Emax ± S.E.M. (% WT): 100.00 ± 2.06 % WT
GCGR mutants [8]
  Emax ± S.E.M. (% WT): 101.97 ± 3.51 % WT
GCGR mutants [8]; ****P < 0.0001
  EC50: 631 pM
GCGR mutants [9]
  Emax ± S.E.M. (% WT): 101.28 ± 2.08 % WT
GCGR mutants [9]; ****P < 0.0001
  EC50: 195 pM
GCGR mutants [10]
  Emax ± S.E.M. (% WT): 99.73 ± 0.94 % WT
GCGR mutants [10]; **P < 0.01
  EC50: 3.24 pM
